Data from PMC7101356, “Cross-site and cross-platform variability of automated patch clamp assessments of drug effects on human cardiac currents in recombinant cells” (Scientific Reports, 2020).
pIC50: −log10 of the molar value.

Experiments:
[1] = based on CiPA evaluations; cited from earlier work
hCav1.2 = hCav1.2 (Homo sapiens, UniProt Q13936); test: Automated patch clamp, hCav1.2 current block
Procedure: Peak current was measured during the step to 0 mV. Leak current was measured after applying a saturating concentration of a blocker such as cadmium (200 µM) at the end of each experiment to completely block hCav1.2 current.
Concentration-response relationships for each test article were independently investigated, i.e., each cell received only one test article, typically evaluating multiple concentrations in a cumulative fashion (lowest to highest concentrations). However, some platforms tested only one concentration per well. Each concentration response was based on a minimum of four concentrations, with a minimum of three wells used for each concentration. In cases of high variability, more cells per concentration were recorded. Prior to drug addition, cells received an addition of vehicle to measure non-test article-related effects such as addition artifacts. At the end of the experiment, a supramaximal concentration of a known inhibitory reference compound was applied to assess leak current and appropriate responsiveness of the test system. While it was recommended that a separate group of cells (n ≥ 3) be recorded for each experimental day to determine the baseline response to vehicle and to address day-to-day variability, this was not verified.
These criteria were applied to all APC platforms.
The steady state current at each concentration was used to determine the concentration-response relationships. Mean concentration-response data were fitted to a standard sigmoidal four-parameter logistic equation (GraphPad Prism 7; GraphPad Inc., La Jolla, CA) of the form: Y=Bottom+(Top−Bottom)/(1+10^∧(LogIC50−X)∗HillSlope) where Y is the current inhibition (in % of pre-drug control), X is the logarithm of drug concentration, and IC50 is the drug concentration producing half-maximal current inhibition. Curve fitting was performed using the following constraints: Top = 100%, Bottom = 0%, Hill Slope <2. No curve fitting was performed in cases with an obvious lack of a concentration-dependent current inhibition and/or small effect size (approximately ≤20%).

hERG [2] = target: T1, hERG (Homo sapiens, UniProt Q12809); test: in vitro; conditions: hERG K+ current inhibition, Mean
peak hNav1.5 = target: T2, peak hNav1.5 (Homo sapiens, UniProt Q14524); test: Automated patch clamp, peak hNav1.5 current block; type: cell-based
T2 construct: expressed in transfected cells; host or cells: HEK293 or CHO, depending on site
T2 sequence (Q14524 whole entry): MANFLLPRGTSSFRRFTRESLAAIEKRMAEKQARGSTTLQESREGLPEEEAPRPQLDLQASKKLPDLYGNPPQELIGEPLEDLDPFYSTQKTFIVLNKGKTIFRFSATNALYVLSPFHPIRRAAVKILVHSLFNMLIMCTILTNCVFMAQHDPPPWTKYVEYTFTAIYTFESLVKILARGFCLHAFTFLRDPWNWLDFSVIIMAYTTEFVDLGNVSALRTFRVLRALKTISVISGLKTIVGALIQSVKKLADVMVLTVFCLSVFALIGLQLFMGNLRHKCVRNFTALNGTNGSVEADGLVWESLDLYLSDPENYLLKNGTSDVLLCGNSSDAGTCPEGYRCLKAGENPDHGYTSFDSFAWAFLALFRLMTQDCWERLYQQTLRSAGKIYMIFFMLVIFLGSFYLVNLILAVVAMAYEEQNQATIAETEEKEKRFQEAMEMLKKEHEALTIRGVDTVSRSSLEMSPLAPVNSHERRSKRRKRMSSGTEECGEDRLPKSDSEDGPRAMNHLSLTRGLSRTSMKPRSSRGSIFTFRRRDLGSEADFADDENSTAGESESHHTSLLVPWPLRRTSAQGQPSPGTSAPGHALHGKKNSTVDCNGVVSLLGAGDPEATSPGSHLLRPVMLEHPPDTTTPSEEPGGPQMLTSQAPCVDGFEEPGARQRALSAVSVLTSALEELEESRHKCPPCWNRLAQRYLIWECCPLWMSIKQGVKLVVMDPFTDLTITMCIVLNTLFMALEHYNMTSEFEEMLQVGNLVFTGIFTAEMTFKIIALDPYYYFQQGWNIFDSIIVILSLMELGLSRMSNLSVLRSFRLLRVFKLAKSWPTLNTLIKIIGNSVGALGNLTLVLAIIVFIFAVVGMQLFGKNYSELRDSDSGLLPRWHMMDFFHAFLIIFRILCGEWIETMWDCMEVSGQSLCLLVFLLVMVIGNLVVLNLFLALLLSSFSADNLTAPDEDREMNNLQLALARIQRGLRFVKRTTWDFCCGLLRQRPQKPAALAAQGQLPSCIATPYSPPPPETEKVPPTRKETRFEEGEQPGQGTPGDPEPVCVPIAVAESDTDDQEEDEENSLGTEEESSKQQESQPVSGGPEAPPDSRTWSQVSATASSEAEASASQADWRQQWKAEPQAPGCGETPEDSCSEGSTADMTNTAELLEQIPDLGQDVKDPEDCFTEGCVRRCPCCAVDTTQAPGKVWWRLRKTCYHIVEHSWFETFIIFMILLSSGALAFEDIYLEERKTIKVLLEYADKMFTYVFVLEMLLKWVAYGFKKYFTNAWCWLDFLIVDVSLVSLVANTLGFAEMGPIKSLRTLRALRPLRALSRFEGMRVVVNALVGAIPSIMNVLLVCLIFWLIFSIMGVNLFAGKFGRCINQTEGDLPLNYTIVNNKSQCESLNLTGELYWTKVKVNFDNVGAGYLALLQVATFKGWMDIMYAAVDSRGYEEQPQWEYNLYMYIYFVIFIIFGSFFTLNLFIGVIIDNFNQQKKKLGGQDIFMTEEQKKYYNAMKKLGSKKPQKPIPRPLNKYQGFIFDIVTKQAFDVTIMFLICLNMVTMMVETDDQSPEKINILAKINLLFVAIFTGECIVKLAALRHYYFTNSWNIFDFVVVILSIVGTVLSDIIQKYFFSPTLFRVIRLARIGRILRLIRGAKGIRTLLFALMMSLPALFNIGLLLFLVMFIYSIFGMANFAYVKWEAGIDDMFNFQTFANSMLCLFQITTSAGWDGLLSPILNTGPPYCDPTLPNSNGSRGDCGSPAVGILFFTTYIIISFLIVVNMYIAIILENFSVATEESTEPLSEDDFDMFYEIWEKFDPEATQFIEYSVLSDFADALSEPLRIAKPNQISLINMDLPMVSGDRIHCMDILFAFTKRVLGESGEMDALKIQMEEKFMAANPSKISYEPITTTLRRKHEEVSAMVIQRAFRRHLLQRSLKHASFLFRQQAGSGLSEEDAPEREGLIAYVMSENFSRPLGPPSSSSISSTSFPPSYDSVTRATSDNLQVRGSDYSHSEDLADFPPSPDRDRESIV

late hNav1.5 = target: T3, late hNav1.5 (Homo sapiens, UniProt Q14524); test: Automated patch clamp, late hNav1.5 current block (ATX-II activated); type: cell-based
T3 construct: expressed in transfected cells; host or cells: HEK293 or CHO, depending on site
T3 sequence (Q14524 whole entry): as above

hERG [3] = target: T1, hERG; design: expressed in transfected cells; host or cells: HEK293 or CHO, depending on site (site s06, Milnes protocol: HEK293); conditions: physiologic temperatures; cited from earlier work
[4] = site_platform s06_p4, 1.00E-09 mol/L
[5] = site_platform s06_p4, 3.00E-07 mol/L
[6] = site_platform s07_p6, 1.00E-09 mol/L
[7] = site_platform s07_p6, 3.00E-07 mol/L
[8] = site_platform s13_p2, 1.00E-09 mol/L
[9] = site_platform s14_p1, 3.00E-07 mol/L

## COc1cc(N)c(Cl)cc1C(=O)NC1CCN(CCCOc2ccc(F)cc2)CC1OC (stereo not drawn) [cis, cisapride]
[1]
  TdP Risk Category: Intermediate
hCav1.2; log IC50, half-maximal inhibitory concentration, site s16_p3
  pIC50: 6.35
hCav1.2; site s01_p1
  log IC50, half-maximal inhibitory concentration: no inh.
hCav1.2; site s01_p1, 1.00E-09 mol/L
  Peak hCav1.2 Ca2+ current inhibition, Mean: 7.4%
hCav1.2; site s01_p1, 3.00E-07 mol/L
  Peak hCav1.2 Ca2+ current inhibition, Mean: 8.1%
hCav1.2; site s02_p2, corrected for rundown
  log IC50, half-maximal inhibitory concentration: no inh.
hCav1.2; site s02_p2, corrected for rundown, 1.00E-09 mol/L
  Peak hCav1.2 Ca2+ current inhibition, Mean: -5.7%
hCav1.2; site s02_p2, corrected for rundown, 3.00E-07 mol/L
  Peak hCav1.2 Ca2+ current inhibition, Mean: 14.5%
hCav1.2; site s06_p4
  log IC50, half-maximal inhibitory concentration: no inh.
hCav1.2; site s06_p4, 1.00E-09 mol/L
  Peak hCav1.2 Ca2+ current inhibition, Mean: -8.1%
hCav1.2; site s06_p4, 3.00E-07 mol/L
  Peak hCav1.2 Ca2+ current inhibition, Mean: -6.0%
hCav1.2; site s11_p1
  log IC50, half-maximal inhibitory concentration: no inh.
hCav1.2; site s11_p1, 1.00E-09 mol/L
  Peak hCav1.2 Ca2+ current inhibition, Mean: 7.8%
hCav1.2; site s11_p1, 3.00E-07 mol/L
  Peak hCav1.2 Ca2+ current inhibition, Mean: 10.4%
hCav1.2; site s14_p1
  log IC50, half-maximal inhibitory concentration: no inh.
hCav1.2; site s14_p1, 1.00E-09 mol/L
  Peak hCav1.2 Ca2+ current inhibition, Mean: -10.3%
hCav1.2; site s14_p1, 3.00E-07 mol/L
  Peak hCav1.2 Ca2+ current inhibition, Mean: -19.9%
hCav1.2; site s16_p3
  nH, Hill slope: 0.24
hCav1.2; site s16_p3, 1.00E-09 mol/L
  Peak hCav1.2 Ca2+ current inhibition, Mean: 20.1%
hCav1.2; site s16_p3, 3.00E-07 mol/L
  Peak hCav1.2 Ca2+ current inhibition, Mean: 49.1%
hCav1.2; site s18_p1
  log IC50, half-maximal inhibitory concentration: no inh.
hCav1.2; site s18_p1, 1.00E-09 mol/L
  Peak hCav1.2 Ca2+ current inhibition, Mean: 2.8%
hCav1.2; site s18_p1, 3.00E-07 mol/L
  Peak hCav1.2 Ca2+ current inhibition, Mean: -16.5%
hERG [2]
  inhibition at 4 min, 1e-09 mol/L: 7.2%
  inhibition at 4 min, 3e-07 mol/L: 68.5%
  inhibition at 7 min, 1e-09 mol/L: 12%
Peak hNav1.5; no inhibition = no obvious concentration-dependent current block and/or no curve fitting performed, all sites
  peak hNav1.5 Na+ current inhibition (result in words): no inhibition
Peak hNav1.5; site_platform s01_p1
  log IC50, peak hNav1.5 Na+ current inhibition: no inh.
Peak hNav1.5; site_platform s01_p1, 1.00E-09 mol/L
  Peak hNav1.5 Na+ current inhibition, Mean: 55.1%
Peak hNav1.5; site_platform s01_p1, 3.00E-07 mol/L
  Peak hNav1.5 Na+ current inhibition, Mean: 41.7%
Peak hNav1.5; site_platform s02_p2
  log IC50, peak hNav1.5 Na+ current inhibition: no inh.
Peak hNav1.5; site_platform s02_p2, 1.00E-09 mol/L
  Peak hNav1.5 Na+ current inhibition, Mean: 0.1%
Peak hNav1.5; site_platform s02_p2, 3.00E-07 mol/L
  Peak hNav1.5 Na+ current inhibition, Mean: 4.3%
Peak hNav1.5; site_platform s04_p3
  log IC50, peak hNav1.5 Na+ current inhibition: no inh.
Peak hNav1.5; site_platform s04_p3, 1.00E-09 mol/L
  Peak hNav1.5 Na+ current inhibition, Mean: 1.4%
Peak hNav1.5; site_platform s04_p3, 3.00E-07 mol/L
  Peak hNav1.5 Na+ current inhibition, Mean: 9.8%
Peak hNav1.5; site_platform s06_p4
  log IC50, peak hNav1.5 Na+ current inhibition: no inh.
Peak hNav1.5; [4]
  Peak hNav1.5 Na+ current inhibition, Mean: -1.5%
Peak hNav1.5; [5]
  Peak hNav1.5 Na+ current inhibition, Mean: 6.3%
Peak hNav1.5; site_platform s07_p6
  log IC50, peak hNav1.5 Na+ current inhibition: no inh.
Peak hNav1.5; [6]
  Peak hNav1.5 Na+ current inhibition, Mean: 3.2%
Peak hNav1.5; [7]
  Peak hNav1.5 Na+ current inhibition, Mean: 12.5%
Peak hNav1.5; site_platform s10_p3
  log IC50, peak hNav1.5 inhibition: no inh.
Peak hNav1.5; site_platform s10_p3, 1.00E-09 mol/L
  Peak hNav1.5 Na+ current inhibition, Mean: -1.1%
Peak hNav1.5; site_platform s10_p3, 3.00E-07 mol/L
  Peak hNav1.5 Na+ current inhibition, Mean: 11.3%
Peak hNav1.5; site_platform s11_p1
  log IC50, peak hNav1.5 inhibition: no inh.
Peak hNav1.5; site_platform s11_p1, 1.00E-09 mol/L
  Peak hNav1.5 Na+ current inhibition, Mean: 8.6%
Peak hNav1.5; site_platform s11_p1, 3.00E-07 mol/L
  Peak hNav1.5 Na+ current inhibition, Mean: 10.0%
Peak hNav1.5; site_platform s12_p2
  log IC50, peak hNav1.5 inhibition: no inh.
Peak hNav1.5; site_platform s12_p2, 1.00E-09 mol/L
  Peak hNav1.5 Na+ current inhibition, Mean: -0.2%
Peak hNav1.5; site_platform s12_p2, 3.00E-07 mol/L
  Peak hNav1.5 Na+ current inhibition, Mean: 6.8%
Peak hNav1.5; site_platform s13_p2
  log IC50, peak hNav1.5 inhibition: no inh.
Peak hNav1.5; [8]
  Peak hNav1.5 Na+ current inhibition, Mean: -1.8%
Peak hNav1.5; site_platform s14_p1
  log IC50, peak hNav1.5 inhibition: no inh.
Peak hNav1.5; [9]
  Peak hNav1.5 Na+ current inhibition, Mean: -0.4%
Peak hNav1.5; site_platform s15_p1
  log IC50, peak hNav1.5 inhibition: no inh.
Peak hNav1.5; site_platform s15_p1, 1.00E-09 mol/L
  Peak hNav1.5 Na+ current inhibition, Mean: 10.3%
Peak hNav1.5; site_platform s15_p1, 3.00E-07 mol/L
  Peak hNav1.5 Na+ current inhibition, Mean: 21.4%
Peak hNav1.5; site_platform s16_p3
  log IC50, peak hNav1.5 inhibition: no inh.
Peak hNav1.5; site_platform s16_p3, 1.00E-09 mol/L
  Peak hNav1.5 Na+ current inhibition, Mean: 3.1%
Peak hNav1.5; site_platform s16_p3, 3.00E-07 mol/L
  Peak hNav1.5 Na+ current inhibition, Mean: 13.4%
Peak hNav1.5; site_platform s17_p1
  log IC50, peak hNav1.5 inhibition: no inh.
Peak hNav1.5; site_platform s17_p1, 3.00E-07 mol/L
  Peak hNav1.5 Na+ current inhibition, Mean: 1.3%
Peak hNav1.5; site_platform s18_p1
  log IC50, peak hNav1.5 inhibition: no inh.
Peak hNav1.5; site_platform s18_p1, 1.00E-09 mol/L
  Peak hNav1.5 Na+ current inhibition, Mean: -22.5%
Peak hNav1.5; site_platform s18_p1, 3.00E-07 mol/L
  Peak hNav1.5 Na+ current inhibition, Mean: 1.0%
Peak hNav1.5; site_platform s19_p3
  log IC50, peak hNav1.5 inhibition: no inh.
Peak hNav1.5; site_platform s19_p3, 1.00E-09 mol/L
  Peak hNav1.5 Na+ current inhibition, Mean: 6.7%
Peak hNav1.5; site_platform s19_p3, 3.00E-07 mol/L
  Peak hNav1.5 Na+ current inhibition, Mean: 20.0%
Late hNav1.5; site_platform s06_p4
  log IC50, late hNav1.5 inhibition: no inh.
Late hNav1.5; [4]
  Late hNav1.5 Na+ current inhibition, Mean: -0.7%
Late hNav1.5; [5]
  Late hNav1.5 Na+ current inhibition, Mean: 31.8%
Late hNav1.5; site_platform s07_p6
  log IC50, late hNav1.5 inhibition: no inh.
Late hNav1.5; [6]
  Late hNav1.5 Na+ current inhibition, Mean: 4.3%
Late hNav1.5; [7]
  Late hNav1.5 Na+ current inhibition, Mean: -17.0%
Late hNav1.5; site_platform s13_p2
  log IC50, late hNav1.5 inhibition: no inh.
Late hNav1.5; [8]
  Late hNav1.5 Na+ current inhibition, Mean: -16.7%
Late hNav1.5; site_platform s13_p2, 3.00E-07 mol/L
  Late hNav1.5 Na+ current inhibition, Mean: 7.2%
Late hNav1.5; site_platform s14_p1
  log IC50, late hNav1.5 inhibition: no inh.
Late hNav1.5; site_platform s14_p1, 1.00E-09 mol/L
  Late hNav1.5 Na+ current inhibition, Mean: -6.9%
Late hNav1.5; [9]
  Late hNav1.5 Na+ current inhibition, Mean: -6.3%

## O=c1[nH]c2ccccc2n1C1CCN(CCCC(c2ccc(F)cc2)c2ccc(F)cc2)CC1 [pimozide]
hERG [3]
  difference of hERG IC50 between two manual patch clamp laboratories: 44 fold
